Experimental data published in the SangsterLogP compilation.

SMILES	logP
Cc1cc(C)nc(NC(=O)c2cccc(F)c2)c1	3.31
COc1cccc2cc(C(=O)Nc3cc(C)cc(C)n3)oc12	4.27
Cc1cc(C)nc(NC(=O)c2cccc([N+](=O)[O-])c2)c1	3.13
Cc1cc(C)nc(NC(=O)c2cc3ccccc3s2)c1	4.08
Cc1cc(C)nc(NC(=O)c2ccc(C)o2)c1	2.75
Cc1cc(C)nc(NC(=S)c2ccccc2)c1	3.45
Cc1cc(C)nc(NC(=O)c2cccc(C#N)c2)c1	2.88
Cc1cc(C)nc(NC(=O)c2cccs2)c1	2.77
Cc1cc(C)nc(NC(=O)c2cccc(Br)c2)c1	4.04
Cc1cc(C)nc(NC(=O)c2ccccc2)c1	3.09
Cc1cc(C)nc(NC(=O)C(c2ccccc2)c2ccccc2)c1	4.77
Cc1cc(C)nc(NC(=O)Cc2ccc(Br)cc2)c1	4.07

More lines, now with the values ahead:

logP	SMILES
3.88	Cc1cc(C)nc(NC(=O)c2cccc(Cl)c2)c1
3.74	Cc1cc(C)nc(NC(=O)c2ccc(Br)s2)c1
3.54	Cc1cc(C)nc(NC(=O)c2cc3ccccc3o2)c1
2.39	Cc1cc(C)nc(NC(=O)c2ccc([N+](=O)[O-])o2)c1
2.25	Cc1cc(C)nc(NC(=O)c2ccco2)c1
2.42	Cc1cc(C)nc(NC(=O)c2cccn2C)c1
3.22	Cc1cc(C)nc(NC(=O)c2ccc(Br)o2)c1
3.2	Cc1cc(C)nc(NC(=S)c2ccc(C)o2)c1
3.67	Cc1cc(C)nc(NC(=O)C(C)c2ccccc2)c1 (configuration not stated)
2.35	CC(=O)Oc1ccccc1C(=O)Nc1cc(C)cc(C)n1
